Reference: ChEMBL document CHEMBL1151653, “13-Deoxycarminomycin, a new biosynthetic anthracycline” (J Nat Prod, 1985)
≈ marks a conversion by molar mass, not a printed value.

Key:
P388 [1] = test: Cytotoxicity against doxorubicin resistant mouse P388 cells; format: functional; settings: read-out: ID50 (the source's name)
Mus musculus [2] = test: Toxicity in mouse P388 cells xenografted mouse assessed as induction of death at 0.6 mg/kg, ip; format: organism-based; parameters: dose 0.6 mg/kg, route intraperitoneal; settings: in vivo
P388 [3] = test: Antitumor activity against mouse P388 cells xenografted in mouse assessed as median survival time at 1.5 mg/kg, ip relative to control; format: functional; settings: route intraperitoneal
Escherichia coli = test: Antimicrobial activity against Escherichia coli B ATCC 11303 by tube dilution method; format: functional
HeLa [4] = test: Cytotoxicity against human HeLa cells assessed as colony formation at 6.2 ng/ml relative to control; format: functional
P388 [5] = test: Antitumor activity against mouse P388 cells xenografted in mouse assessed as median survival time at 1 mg/kg, ip relative to control; format: functional; settings: route intraperitoneal
HeLa [6] = test: Cytotoxicity against human HeLa cells assessed as colony formation at 1.5 ng/ml relative to control; format: functional
Bacillus subtilis = test: Antimicrobial activity against Bacillus subtilis ATCC 6633 by tube dilution method; format: functional
P388 [7] = test: Antitumor activity against mouse P388 cells xenografted in mouse assessed as median survival time at 0.6 mg/kg, ip relative to control; format: functional; settings: route intraperitoneal
HeLa [8] = test: Cytotoxicity against human HeLa cells assessed as colony formation at 12.5 ng/ml relative to control; format: functional
Staphylococcus aureus [9] = test: Antimicrobial activity against Staphylococcus aureus 209 P by tube dilution method; format: functional
P388 [10] = test: Cytotoxicity against mouse P388 cells; format: functional; settings: read-out: ID50 (the source's name)
Micrococcus luteus = test: Antimicrobial activity against Sarcina lutea ATCC 9341 by tube dilution method; format: functional
Mus musculus [11] = test: Toxicity in mouse P388 cells xenografted mouse assessed as induction of death at 1.5 mg/kg, ip; format: organism-based; parameters: dose 1.5 mg/kg, route intraperitoneal; settings: in vivo
Staphylococcus aureus [12] = test: Antimicrobial activity against drug resistant Staphylococcus aureus isolate 153 producing beta lactamase by tube dilution method; format: functional
Mus musculus [13] = test: Toxicity in mouse P388 cells xenografted mouse assessed as induction of death at 0.4 mg/kg, ip; format: organism-based; parameters: dose 0.4 mg/kg, route intraperitoneal; settings: in vivo
P388 [14] = test: Antitumor activity against mouse P388 cells xenografted in mouse assessed as median survival time at 0.4 mg/kg, ip relative to control; format: functional; settings: route intraperitoneal
HeLa [15] = test: Cytotoxicity against human HeLa cells assessed as colony formation at 3.1 ng/ml relative to control; format: functional
HeLa [16] = test: Cytotoxicity against human HeLa cells assessed as inhibition of colony formation relative to control; format: functional; settings: read-out: ID50 (the source's name)
P388 [17] = test: Antitumor activity against mouse P388 cells xenografted in mouse assessed as median survival time at 2.9 mg/kg, ip relative to control; format: functional; settings: route intraperitoneal
Mus musculus [18] = test: Toxicity in mouse P388 cells xenografted mouse assessed as induction of death at 2.9 mg/kg, ip; format: organism-based; parameters: dose 2.9 mg/kg, route intraperitoneal; settings: in vivo
Mus musculus [19] = test: Toxicity in mouse P388 cells xenografted mouse assessed as induction of death at 4.4 mg/kg, ip; format: organism-based; parameters: dose 4.4 mg/kg, route intraperitoneal; settings: in vivo
HeLa [20] = test: Cytotoxicity against human HeLa cells assessed as inhibition of colony formation at 25 ng/ml relative to control; format: functional; parameters: scale not given: the % may be the effect or the level left
P388 [21] = test: Antitumor activity against mouse P388 cells xenografted in mouse assessed as median survival time at 4.4 mg/kg, ip relative to control; format: functional; settings: route intraperitoneal
P388 [22] = test: Antitumor activity against mouse P388 cells xenografted in mouse assessed as median survival time at 6.6 mg/kg, ip relative to control; format: functional; settings: route intraperitoneal

Row | Compound | IC50 (P388 [1]) [µg/mL] | Activity (HeLa [4]) [%] | Activity (HeLa [6]) [%] | Activity (HeLa [8]) [%] | IC50 (P388 [10]) [µg/mL] | Activity (HeLa [15]) [%] | IC50 (HeLa [16]) [µg/mL] | other results
1 | CC[C@]1(O)Cc2c(O)c3c(c(O)c2[C@@H](O[C@H]2C[C@H](N)[C@H](O)[C@H](C)O2)C1)C(=O)c1c(O)cccc1C3=O | 0.004 (≈ 0.00801 µM) | 55 | 126 | 36 | 0.0015 (≈ 0.003 µM) | 90 | 0.0062 (≈ 0.0124 µM) | Activity (Mus musculus [2]): Non-toxic; Activity (P388 [3]): 109%; MIC (Escherichia coli): 3.12 µg/mL (≈ 6.25 µM); Activity (P388 [5]): 163%; MIC (Bacillus subtilis): 6.25 µg/mL (≈ 12.5 µM); Activity (P388 [7]): 150%; MIC (Staphylococcus aureus [9]): 12.5 µg/mL (≈ 25 µM); MIC (Micrococcus luteus): 1.56 µg/mL (≈ 3.12 µM); Activity (Mus musculus [11]): Toxic; MIC (Staphylococcus aureus [12]): 25 µg/mL (≈ 50 µM); Activity (Mus musculus [13]): Non-toxic; Activity (P388 [14]): 136%
2 | CC(=O)[C@]1(O)Cc2c(O)c3c(c(O)c2[C@@H](O[C@H]2C[C@H](N)[C@H](O)[C@H](C)O2)C1)C(=O)c1c(O)cccc1C3=O [CARUBICIN] | 0.004 (≈ 0.00779 µM) | 3 | 120 | 0 | 0.007 (≈ 0.0136 µM) | 33 | 0.0031 (≈ 0.00604 µM) | 
3 | COc1cccc2c1C(=O)c1c(O)c3c(c(O)c1C2=O)C[C@@](O)(C(C)=O)C[C@@H]3O[C@H]1C[C@H](N)[C@H](O)[C@H](C)O1 [DAUNORUBICIN] | 0.75 (≈ 1.42 µM) | 123 |  | 48 | 0.0095 (≈ 0.018 µM) |  | 0.0125 (≈ 0.0237 µM) | T/C (P388 [17]): 177%; Activity (Mus musculus [18]): Non-toxic; Activity (Mus musculus [19]): Non-toxic; Activity (HeLa [20]): 13%; T/C (P388 [21]): 190%; T/C (P388 [22]): 168%
